Results on 1 compound are retold here after patent US20090291857A1, “METHODS TO IDENTIFY INHIBITORS OF THE UNFOLDED PROTEIN RESPONSE” (THE BOARD OF TRUSTEES OF THE LELAND STANFORD JUNIOR …, priority 2006, published 2009).

Data set [1] in a line: Analysis of blood chemistry and cell composition. In kind it is in vivo, mouse. The method, then:
Complete blood counts (CBC's) and clinical chemistry panels were performed on blood obtained by cardiac puncture after euthanasia with CO2. Gross necropsies were performed, all major viscera were harvested, fixed in 10% buffered neutral formalin, routinely processed for paraffin embedding, and stained with hematoxylin and eosin (H&E). Sections were analyzed by a board-certified veterinary pathologist (DMB).
The increased sensitivity of irestatin-treated cells to hypoxic stress in vitro indicate that selective inhibition of IRE1α signaling could impact tumor growth. […] In contrast, XBP-1s was not detected in normal pancreas specimens (0/20), and infrequently observed in chronic pancreatitis (1/29) (FIG. 15). To explore the effects to irestatin 9389 in vivo, we first established animal dosing parameters using real-time bioluminescence imaging of SCID mice that had been implanted subcutaneously (s.c.) with tumor cells stably expressing the XBP-luciferase reporter. […] The XBP-luciferase signal returned to basal levels by 24 hours after treatment. […] (FIG. 16).

Another data set concerns caspase-3. The data set is described as follows: Cleavage of caspase-3 in HT1080 cells. To be noted: 2.5 μM. The class given is cell-based, human. As for the experimental part:
A. Effect of irestatin 9389 on PERK and ATF6 pathways. HT1080 cells were treated with vehicle alone (lanes 1-4) or 2.5 μM irestatin 9389 (lanes 5-8) and cultured under aerobic conditions for 18 hours (N) or shifted to hypoxia for the indicated times. Protein lysates were analyzed by Western blot analysis using antisera specific for ATF6 (top), CHOP/GADD153 (middle) or actin (bottom). Arrow indicates the cleaved, transcriptionally active form of ATF6. B. Cleavage of caspase-3 in irestatin-treated cells under hypoxia. HT1080 cells were cultured in normoxia (N) or under hypoxia for 36 hours (H 36) in absence or presence of irestatin 9389 (2.5 μM). Arrows indicate proteolytically cleaved caspase-3. C. Colony formation assay. HT1080 cells were treated as in B under normoxia (N) or hypoxia for 48 hours (H 48). Cells were harvested, counted, and allowed to grow under normal culture conditions for 11-12 days. Colonies were visualized with crystal violet staining. D. Quantification of clonogenic survival assay. Values represent the mean+/−SEM from at least 4 independent experiments. E. TUNEL staining of cells treated as in C. F. Quantification of TUNEL-positive cells. Values represent the mean+/−SEM from at least 3 experiments. […] Cells were harvested at the indicated times and counted by hemocytometer. Values represent the mean calculated from triplicate experiments +/−SEM. […]

Turning to `Cc1csc(NC(=O)CSc2nc3c(c(C(F)(F)F)c2C#N)CCC3)n1` [Compound 9389], the “fasting blood glucose levels versus vehicle” value in data set [1] (50 mg/kg) is given as “no significant difference”. Also, the HCT in data set [1] (mean, irestatin-treated mice, complete blood count) came to 47%. The “Total Bilirubin” value in data set [1] (mean, irestatin-treated mice, terminal cardiac blood) was determined as 0.3 mg/dL. Moreover, in the data set with caspase-3 (36 hours of hypoxia), the “cleavage of caspase-3 under hypoxia” value was “stimulated cleavage of caspase-3”. In addition, the “caspase-3 processing under normal oxygen” value in the data set on caspase-3 (normal oxygen conditions) is given as “no effect on caspase-3 processing”.
